These results are taken from US20100256098A1, “COMPOUNDS FOR INHIBITING WIP1, PRODRUGS AND COMPOSITIONS THEREOF, AND RELATED METHODS” (The United States of America, as represented by the …, priority 2007, published 2010).

Substitutions are numbered along the chain they refer to. Like-named read-outs stand apart in the source and are kept apart here. Some results are limits rather than exact numbers.

Assay [1] deals with Wip1 in MCF7 cells. Description: Western blot of phospho-p38 MAPK and p38 MAPK in MCF7 cells treated with compound. It counts as cell-based, human. Particulars: DMSO negative and UV (25J/m2) positive controls. The procedure: The selectivity of three compounds in inhibiting Wip1 was tested on human breast cancer cell line MCF7 cells, the latter strongly expressing Wip1. These cells were treated with each compound, and cell lysates were collected after the indicated time point. 20 ug of total protein extracts were subjected to SDS-PAGE, and levels of phospho-p38 MAPK and p38 MAPK were examined by Western blot analysis using specific antibodies. Dimethyl sulphoxide (DMSO) and UV (25J/m2) treated cells were used as the negative and positive controls respectively.

For assay [2], the target named is T1, human Wip1 protein (rWip1, catalytic domain, residues 1-420) (Homo sapiens, UniProt O15297).
T1 sequence (O15297 1-420): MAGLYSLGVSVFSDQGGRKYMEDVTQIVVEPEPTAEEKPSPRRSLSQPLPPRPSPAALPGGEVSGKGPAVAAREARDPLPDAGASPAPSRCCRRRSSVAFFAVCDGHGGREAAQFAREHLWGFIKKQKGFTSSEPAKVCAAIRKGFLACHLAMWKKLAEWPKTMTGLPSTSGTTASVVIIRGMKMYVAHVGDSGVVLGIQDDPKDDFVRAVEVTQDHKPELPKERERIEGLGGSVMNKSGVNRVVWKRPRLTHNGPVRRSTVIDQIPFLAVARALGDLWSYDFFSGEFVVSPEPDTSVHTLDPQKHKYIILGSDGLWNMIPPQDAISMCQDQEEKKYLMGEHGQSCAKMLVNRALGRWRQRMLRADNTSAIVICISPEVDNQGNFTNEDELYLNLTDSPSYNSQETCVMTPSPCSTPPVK
The assay is described as follows: Wip1 phosphatase assay (malachite green/molybdate-based).
Description: (§1) An N-terminal histidine-tagged, catalytic domain of the human Wip1 protein (amino acid residues 1-420), rWip1, and K238D mutant of Wip1 were expressed in Escherichia coli BL21 (DE3) and purified as previously reported in Yamaguchi et al., supra.
(§2) Phosphatase activity was measured by a malachite green/molybdate-based assay (see, e.g., Yamaguchi et al., Biochemistry, 44:5285-5294 (2005), Harder et al, Biochem J., 298: 395-401 (1994), and Donella-Deana et al., Methods Enzymol., 366: 3-17 (2003)). […] The inhibitors were pre-equilibrated at 30° C. for 6 min. The inhibition percentages were estimated by the following equation.
(§3) where A and A100 denote absorbance intensities at 650 nm with and without the inhibitor, respectively. A0 denotes absorbance of the sample without phosphatase. The IC50 values were estimated by a sigmoidal dose-response equation. The apparent inhibitory constant (Ki) values were estimated using the following equation (see, e.g., Cheng et al., Biochem. Pharmacol., 22: 3099-3108 (1973)):

Assay [3] deals with T2, PP2Cα (Homo sapiens, UniProt P35813).
T2 sequence (P35813 1-382): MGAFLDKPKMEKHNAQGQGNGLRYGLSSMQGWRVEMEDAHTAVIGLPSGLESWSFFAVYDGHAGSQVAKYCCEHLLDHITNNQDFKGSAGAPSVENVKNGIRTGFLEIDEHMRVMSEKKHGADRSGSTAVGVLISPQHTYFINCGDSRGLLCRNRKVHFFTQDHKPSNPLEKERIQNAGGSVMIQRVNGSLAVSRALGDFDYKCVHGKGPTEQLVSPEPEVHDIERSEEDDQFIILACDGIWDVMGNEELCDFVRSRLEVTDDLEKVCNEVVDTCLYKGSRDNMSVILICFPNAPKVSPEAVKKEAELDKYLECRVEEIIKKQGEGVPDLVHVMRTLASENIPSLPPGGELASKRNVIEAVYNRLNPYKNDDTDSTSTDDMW
Description: Phosphatase assay with PP2Cα. Conditions: for Ki: read-out: Ki (μM) PP2Cα, Table 2, NI = no inhibition observed.
Description: (§4) The inhibitors were pre-equilibrated at 30° C. for 6 min. The inhibition percentages were estimated by the following equation.
as §3
(§5) wherein [S] is the concentration of the substrate peptide and Km is the Michaelis constant.
(§6) The selectivity of the compounds was determined. Certain compounds were tested to determine their selectivity in inhibiting Wip1, PP2Cα, and a K238D mutant of Wip1 according to the methods described above.

For assay [4], the system named is human Wip1 protein (rWip1, catalytic domain, residues 1-420). Description: Wip1 phosphatase assay (malachite green/molybdate-based). Particulars: versus K238D mutant and PP2Cα.
Description: as §1, §2, §3
The target of assay [5] is T3, Wip1(K238D) (Homo sapiens, UniProt O15297, K238D).
T3 sequence (O15297 1-420 K238D): T1 sequence (O15297 1-420) with K238D
Description: Phosphatase assay with the K238D mutant of Wip1. Conditions: for Ki: read-out: Ki (μM) Wip1(K238D), Table 2, K238D mutant of Wip1, NI = no inhibition observed.
Description: as §4, §3, §5, §6

As for `CCCCC(CCCC)Cc1c(-c2ccc(OP(=O)(OCCSC(=O)C(C)(C)C)Oc3ccccc3)c(Cl)c2)c(C(=O)O)c(Cc2ccc(Cl)cc2)n1CCCOP(=O)(OCCSC(=O)C(C)(C)C)Oc1ccccc1` (stereo not drawn) [Compound 1A], the “effectiveness in inhibiting Wip1 (levels of phospho-p38 MAPK)” value in assay [1] is “effective”.
Broadly, the Ki is a measure of affinity in units of concentration, obtained from inhibition or displacement. As to `CCc1c(-c2ccc(OP(=O)(O)O)cc2)c(C(N)=O)c(C)n1CCOP(=O)(O)O` [Compound 1], the Ki in assay [2] (pH 7.5) was greater than 100 µM.
`CCCc1c(-c2ccc(OP(=O)(O)O)cc2)c(C(N)=O)c(C)n1CCOP(=O)(O)O` [Compound 2] showed a Ki in assay [2] (pH 7.5) greater than 100 µM.
As for `CCCC(C)Cc1c(-c2ccc(OP(=O)(O)O)cc2)c(C(N)=O)c(C)n1CCOP(=O)(O)O` (stereo not drawn) [Compound 3], affinity in assay [2] was put at a Ki of 61 ± 15 µM.
Turning to `Cc1c(C(N)=O)c(-c2ccc(OP(=O)(O)O)cc2)c(CC2CCCCC2)n1CCOP(=O)(O)O` [Compound 4], in assay [2], the affinity, expressed as Ki, was 81 ± 5 µM.
For the molecule `CCCCCc1c(-c2ccc(OP(=O)(O)O)c(Cl)c2)c(C(N)=O)c(C)n1CCOP(=O)(O)O` [Compound 5], in assay [2], the affinity corresponds to a Ki of 77 ± 12 µM.
Still for that read-out and setting: as for `Cc1c(C(N)=O)c(-c2ccc(OP(=O)(O)O)c(Cl)c2)c(CC(C)C)n1CCOP(=O)(O)O` [Compound 6], the figure is 38 ± 8 µM; as for `CCCC(C)Cc1c(-c2ccc(OP(=O)(O)O)c(Cl)c2)c(C(N)=O)c(C)n1CCOP(=O)(O)O` (stereo not drawn) [Compound 7], 40 ± 1 µM.
In the case of `CCCC(C)Cc1c(-c2ccc(OP(=O)(O)O)cc2)c(C(N)=O)c(C)n1CCCOP(=O)(O)O` (stereo not drawn) [Compound 9], the affinity in assay [2], expressed as Ki, was 22 ± 3 µM.
For the molecule `Cc1c(C(N)=O)c(-c2ccc(OP(=O)(O)O)c(Cl)c2)c(CC(C)C)n1CCCOP(=O)(O)O` [Compound 10], in assay [2], affinity was put at a Ki of 28 ± 1 µM.
`CCCC(C)Cc1c(-c2ccc(OP(=O)(O)O)c(Cl)c2)c(C(N)=O)c(C)n1CCCCOP(=O)(O)O` (stereo not drawn) [Compound 11] registered a Ki in assay [2] (pH 7.5) greater than 100 µM.
For `CCCC(C)Cc1c(-c2ccc(OP(=O)(O)O)c(Cl)c2)c(C(=O)NCCC(N)=O)c(C)n1CCCOP(=O)(O)O` (stereo not drawn) [Compound 12], the Ki in assay [2] (pH 7.5) is greater than 100 µM.
`CCCC(C)Cc1c(-c2ccc(OP(=O)(O)O)c(Cl)c2)c(C(=O)NC(CC(C)C)C(N)=O)c(C)n1CCCOP(=O)(O)O` (stereo not drawn) [Compound 13]: in assay [2], the Ki amounted to 22 ± 2 µM.
In assay [2] (pH 7.5), `CCCCC(C)c1c(C(N)=O)c(-c2ccc(OP(=O)(O)O)c(Cl)c2)c(C)n1CCCOP(=O)(O)O` (stereo not drawn) [Compound 14] returned a Ki greater than 100 µM.
Regarding `CCCC(C)Cc1c(-c2ccc(OP(=O)(O)O)cc2)c(C(N)=O)c(CC(C)C)n1CCCOP(=O)(O)O` (stereo not drawn) [Compound 15], in assay [2], the affinity corresponds to a Ki of 48 ± 5 µM.
Molecule `CCCC(C)Cc1c(-c2ccc(OP(=O)(O)O)c(Cl)c2)c(C(N)=O)c(CCc2ccccc2)n1CCCOP(=O)(O)O` (stereo not drawn) [Compound 18] gave a Ki in assay [2] of 15 ± 1 µM.
Same read-out and setting: as for `CC(C)Cc1c(-c2ccc(OP(=O)(O)O)c(Cl)c2)c(C(N)=O)c(Cc2ccc(Cl)cc2)n1CCCOP(=O)(O)O` [Compound 21], the figure is 22 ± 1 µM.
On to `CCCC(C)Cc1c(-c2ccc(OP(=O)(O)O)c(Cl)c2)c(C(N)=O)c(Cc2ccc(F)cc2)n1CCCOP(=O)(O)O` (stereo not drawn) [Compound 23], for which the Ki in assay [2] came to 16 ± 2 µM.
As to `CCCC(C)Cc1c(-c2ccc(OP(=O)(O)O)c(Cl)c2)c(C(N)=O)c(CCc2ccc(Cl)cc2)n1CCCOP(=O)(O)O` (stereo not drawn) [Compound 24], the “inhibition of PP2Cα” value in assay [3] is “no inhibition”. The inhibitory constant (Ki) in assay [3] is greater than 100 µM; in assay [2] it was 5.7 ± 0.4 µM; in assay [5], greater than 100 µM. Further, the “selectivity for Wip1” value in assay [4] was “highly selective”. For the same molecule, the “inhibition of the K238D mutant” value in assay [5] was “no inhibition”.
In the case of `CCC[C@H](C)Cc1c(-c2ccc(OP(=O)(O)O)c(Cl)c2)c(C(N)=O)c(CCc2ccc(Cl)cc2)n1CCCOP(=O)(O)O` [Compound 25], the “inhibition of PP2Cα” value in assay [3] is on record as “no inhibition”. In addition, the Ki in assay [3] is greater than 100 µM; in assay [2] it was 4.7 ± 0.7 µM; in assay [5], greater than 100 µM. In addition, the “selectivity for Wip1” value in assay [4] is reported as “highly selective”. Further, the “inhibition of the K238D mutant” value in assay [5] is listed as “no inhibition”.
In the case of `CCC[C@@H](C)Cc1c(-c2ccc(OP(=O)(O)O)c(Cl)c2)c(C(N)=O)c(CCc2ccc(Cl)cc2)n1CCCOP(=O)(O)O` [Compound 26], in assay [3], the “inhibition of PP2Cα” value is recorded as “no inhibition”. Also, the Ki is greater than 100 µM in assay [3], 10 ± 1 µM in assay [2] and greater than 100 µM in assay [5]. Besides, the “selectivity for Wip1” value in assay [4] is listed as “highly selective”. Besides, the “inhibition of the K238D mutant” value in assay [5] is on record as “no inhibition”.
